Measured values reported in US9694010B2, “Therapeutic formulation and methods of treatment” (MacuCLEAR, Inc., priority 2012, dated 2017).
Where a name gives a salt, the structure may show the parent alone. Read-outs that look alike come from different tables or passages of the source.

Legend:
ARPE-19 cells [1] = settings: 24 hours; for cell viability (maximum protection): P<0.001
Description: (§1) The human RPE cell line ARPE-19 (ATCC; Manassas, Va.) was cultured in Dulbecco's Modified Essential Medium (DMEM) supplemented with 10% fetal bovine serum, 50 units/mL penicillin-streptomycin and 2.5 mM glutamine at 37° incubation with 5% CO2. The cell line was not transformed and had structure and function properties characteristic of RPE in vivo. The cells were seeded into 96-well plates, and subconfluent cell monolayers were studied within 3 to 10 passages. Before starting the experimental procedures, the medium was removed and replaced with phenol red-free low-glucose DMEM supplemented with 1% calf serum, 0.06% glutamine, and 1% penicillin-streptomycin.
(§2) The cells were used for experiments when they reached 80% confluence to prevent contact inhibition.
(§3) After the 24-hour exposure, the MTT reagent solution (5 mg/mL) was added to each well in a ratio of 1:10 MTT reagent:culture medium volume. The cultures were incubated with the MTT reagent for 3 hours at 37° C. At the end of incubation, the MTT solution was removed, and 0.1 mL of dimethyl sulfoxide (DMSO) was added to each well to solubilize the purple formazan product. The proportion of viable cells was determined by measuring the optical density (OD) of each sample at 570 nm (A570) using a SpectraCount plate reader (Packard BioScience, Meridan, Conn.). The relationship between the OD readings in the MTT colorimetric assay and the exact cell number was determined by seeding cells at identical densities and then performing the MTT assay and manual hemocytometer cell counts on parallel replicate cultures. Trypan blue was added to the hemocytometer cultures so that only viable, dye-excluding cells were counted. This approach enabled the establishment of a standard curve for A570 versus cell number.
(§4) All data were presented as mean±standard error. A nonpaired Student t test was performed to analyze the significance between 2 means at a certain time point. The differences were considered significant at P<0.05. Results for nitric oxide measurements were expressed in μM nitrite and nitrate per 1×10^6 cells.

rabbit eye = assay: 28-day repeat dose ocular toxicity; format: in vivo, Dutch Belted rabbits
Description: Hydralazine hydrochloride ophthalmic solutions were prepared essentially as described in Example 1 at concentrations of 0.0% (vehicle), 0.5% hydralazine hydrochloride, 1.0% hydralazine hydrochloride, and 2.0% hydralazine hydrochloride. The formulation, vehicle or control was administered daily for 28 days to the designated eye of forty Dutch Belted rabbits (5 males and 5 females per group) as shown in Table 2. […]
A modified Hackett and McDonald microscopic ocular grading system (Hackett 1996) was applied to ocular findings following the use of a slit-lamp biomicroscope, which included insertion of a blue filter to assess for fluorescein dye retention. For any evaluated microscopic ocular examination parameter, there were no statistically significant differences, in either male or female rabbits, between Group 1 and Groups 2-4 during the pre dose or Day 29 study measurement periods.
Mean tonometry (Tono-pen; Reichert Ophthalmic Instruments, Depew, N.Y.) readings of IOP in control and test rabbits pre-dose and on Day 29 were between 15-25 mmHg, which is within the normal physiologic range. […]

[2] = 25° C., pH 3.5, cationic form; obtained by extrapolation
Source text: In one embodiment, the hydralazine for use in the formulation is a hydralazine salt such as hydralazine hydrochloride.

[3] = all subjects
Source text: Subjects in the dry AMD group had evidence of small and intermediate drusen, minimal or no pigment abnormalities in the macula (i.e., risk factor 2 on the AREDS Simplified Grading Scale), and a Snellen equivalent best corrected visual acuity (BCVA) equal to or better than 20/100.
The patients received 1 drop of test material in one eye and vehicle control in the contra-lateral eye. The patients administered the first dose of each day in the clinical setting and self-administered the remaining two doses of the day at prescribed time points.
On days 2 and 3, the evaluations were after the first two time-points. The 7th dose was administered in the morning on day 3. Seven days after the final dose, patients were contacted via telephone to evaluate any post study adverse events or issues.

[4] = Description: Choroidal blood flow, velocity and volume were assessed following the first dosing of test material on each day. […] Measurements were made using a Laser Doppler Flowmetry device, which is a state-of-the-art, non-invasive and quantitative approach for visualizing and measuring subfoveal choroidal blood flow.
There was a trend of increased mean choroidal blood volume and velocity values in hydralazine hydrochloride-treated eyes, which peaked approximately 2 hours after topical ocular dosing on day 1 and returned to baseline values approximately 4 hours after dosing (i.e., 2 hours later). […] By contrast, in normal/healthy subjects both mean values and associated standard deviations (SDs) remained low at all time points on day 1. • Odds ratio analyses of the choroidal blood flow outcomes between the AMD and Normal groups for day 1 were evaluated.

ARPE-19 cells [5] = settings: NaN3 0.1-100 mM, hydralazine 1, 3, 10, 30, 100 μg/mL
Description: RPE cells were washed and replaced with fresh DMEM-F12 medium containing various concentrations of NaN3 (0.1 mM-100 mM). […] Reactions were stopped by washing out the medium.

ARPE-19 cells [6] = assay: tBHP-induced toxicity, MTT assay; settings: 24 hours; for cell viability (maximum protection): 100 μg/mL of hydralazine, P<0.001
Description: as §1, §2, §3, §4

ARPE-19 cells [7] = settings: 1% O2, 1 μg/mL of hydralazine, P<0.001
Description: In vitro hypoxia treatment was carried out using a ProOx hypoxia system. […] In hypoxia, oxygen concentrations of 1% O2 and 5% CO2 were maintained using a temperature- and humidity-controlled environmental C-chamber by O2 and CO2 controllers (ProOx Model 110 and ProCO2 Model 120; BioSpherix Ltd., Redfield, N.Y.) with N2 and CO2 gas sources. Reactions were stopped by washing out the medium, and 5 mg/mL MTT at a dilution of 1:10 based on the volume of culture medium was added for 3 hours at 37° C. At the end of incubation, the MTT solution was removed, and the cells were dissolved in 0.1 mL/well DMSO. The proportion viable cells were determined by measuring the OD of each sample at 570 nm using a SpectraCount plate reader (Packard BioScience, Meridan, Conn.).

[8] = cited from earlier work; for systemic bioavailability: gastrointestinal absorption
[9] = test system: Human Umbilical Vein Endothelial Cells (HUVEC); assay: In vitro tube formation; settings: 100 μg/ml, 48 hours

For `OO` [Formulation H2O2, hydrogen peroxide], the cell viability (ARPE-19 cells [1]; 0.3 mM H2O2 alone) was 48.74%±2.40% and the cell viability (ARPE-19 cells [1]; 1.0 mM H2O2 alone) was 41.28%±0.80%.
With `NNc1nncc2ccccc12` [hydralazine hydrochloride, Hydralazine hydrochloride] the dose-related toxicologic changes (rabbit eye; 28 days of daily topical ocular treatment, 0.5-2.0%, 40 μL) was “did not result in the development of significant doserelated toxicologic changes”, the ocular histopathology (rabbit eye; daily application of up to 2.0% for 28 days) was “did not result in the development of ocular pathology, inflammation, degeneration, or histologic evidence of toxicity” and the “rate constant (time with less than a 10% loss)” value [2] was 1.5 years. The “average time to resolution of ocular hyperemia” value ([3]; range 1 to 4 days) was 1.85 days, the “ocular hyperemia, treated eyes” value ([3]; hydralazine hydrochloride-treated eyes, 1 vehicle-treated eye) was 21 eyes and the “odds ratio, choroidal blood volume outcome, AMD vs Normal group” value ([4]; day 1, 60 minute time point (p=0.337)) was 0.22. For the same compound, the “odds ratio, choroidal blood volume outcome, AMD vs Normal group” value ([4]; day 1, 120 minute time point (p=0.106)) was 6.67, the “time of peak of mean choroidal blood volume and velocity” value ([4]; day 1, after topical ocular dosing, back to baseline approximately 4 hours after dosing) was “approximately 2 hours” and the “choroidal blood flow, mean scores” value ([4]; treated eyes in AMD subjects) was “trend towards improved mean scores”.
For `NNc1nncc2ccccc12` [hydralazine], the “effect on NaN3 chemically-induced hypoxia (viable cells)” value (ARPE-19 cells [5]) was “no significant effect”, the “cell viability (maximum protection)” value (ARPE-19 cells [1]; insult 0.3 mM H2O2 (second statement), 30 μg/mL of hydralazine) was 68.04%±0.67% and the “cell viability (maximum protection)” value (ARPE-19 cells [1]; insult 0.3 mM H2O2, 30 μg/mL of hydralazine) was 74.30% ±0.80%. The “cell viability (maximum protection)” value (ARPE-19 cells [6]; insult 0.01 mM tBHP) was 109.99%±2.41%, the “cell viability (maximum protection)” value (ARPE-19 cells [6]; insult 0.03 mM tBHP) was 100.84%±13.00% and the “cell viability (maximum reversion)” value (ARPE-19 cells [7]; 48 hours) was 101.21%±0.54%. The “cell viability (maximum reversion)” value (ARPE-19 cells [7]; 72 hours) was 103.55%±1.75%, the systemic clearance ([8]; exceeds hepatic blood flow) was 50 mL/min/kg and the systemic bioavailability ([8]; fast acetylators) was 16%. The systemic bioavailability ([8]; slow acetylators) was 35%, the plasma half-life ([8]; in vivo) was 3 to 7 h and the “time of peak concentration in plasma and maximal hypotensive effect” value ([8]; orally administered) was 30 to 120 min. For the same compound, the “effect on HUVEC” value [9] was “caused apoptosis”.
In the case of `CC(C)(C)OO` [tBHP, Tert-Butyl hydroperoxide], the cell viability (ARPE-19 cells [6]; 0.01 mM tBHP alone) is reported as 89.90%±2.80% and the cell viability (ARPE-19 cells [6]; 0.03 mM tBHP alone) is reported as 55.80%±4.08%.
